# Values of other authors, collected in PubChem BioAssay AID1259409 (Chemical Carcinogenesis Research Information System (CCRIS), 2018).
# Tested on: rodent chemically induced tumor inhibition, incidence and multiplicity
# Test: CCRIS tumor inhibitor studies
structure (smiles),measurement,setting,value
O=c1c(O)c(-c2ccc(O)c(O)c2)oc2cc(O)cc(O)c12,"tumour outcome (control, treated, inhibition, significance)","Carcinogen: BENZO[A]PYRENE, 50-32-8, Dose [Inhibitor]: 25 MG IN 0.1 ML DMSO 3/WK, ADMINISTERED SIMULTANEOUSLY WITH CARCINOGEN FOR DURATION OF STUDY (STUDY DURATION: 368 D), Route [Inhibitor]: DERMAL, Species: MOUSE, Strain/Sex: ICR/FEMALE, Target Tissue: Type of Lesion: SKIN: PAPILLOMA, Dose [Carcinogen]: 5 UG IN 0.1 ML DMSO THAT ALSO CONTAINED AGENT 3/WK FOR DURATION OF STUDY, Promoter: NONE USED","13/50 (26%), 0/50 (0%), 100%, not calculated"
same,"tumour outcome (control, treated, inhibition, significance)","Carcinogen: BENZO[A]PYRENE, 50-32-8, Dose [Inhibitor]: 100 UG IN 0.2 ML ACETONE ONCE 5 MINUTES BEFORE CARCINOGEN TREATMENT (STUDY DURATION: 31 WK), Route [Inhibitor]: DERMAL, Species: MOUSE, Strain/Sex: CD-1/FEMALE, Target Tissue: Type of Lesion: SKIN: PAPILLOMA, Dose [Carcinogen]: 400 NMOL IN 0.2 ML ACETONE ONCE, Promoter: 12-O-TETRADECANOYLPHORBOL-13-ACETATE, 16561-29-8","90%, 82%, 9%, not calculated"
same,"tumour outcome (control, treated, inhibition, significance)","Carcinogen: DIETHYLNITROSAMINE, 55-18-5, N-METHYLNITROSOUREA, 684-93-5, 1,2-DIMETHYLHYDRAZINE, 540-73-8, N-BUTYL-N-(4-HYDROXYB, Carcinogen: DIETHYLNITROSAMINE, 55-18-5, N-METHYLNITROSOUREA, 684-93-5, 1,2-DIMETHYLHYDRAZINE, 540-73-8, N-BUTYL-N-(4-HYDROXYB, Dose [Inhibitor]: 0, 1% IN DIET FOR 4 WK BEGINNING 1 DAY PRIOR TO CARCINOGEN TREATMENT (STUDY DURATION: 36 WK), Route [Inhibitor]: ORAL, Species: RAT, Strain/Sex: F344/MALE, Target Tissue: Type of Lesion: KIDNEY: ADENOMA, Dose [Carcinogen]: 100 MG/KG DEN ONCE, 20 MG/KG MNU 4 TIMES, 40 MG/KG DMH 4 TIMES, 0.05% BBN IN DRINKING WATER FOR 2 WK, 0.1% DHPN IN D, Dose [Carcinogen]: 100 MG/KG DEN ONCE, 20 MG/KG MNU 4 TIMES, 40 MG/KG DMH 4 TIMES, 0.05% BBN IN DRINKING WATER FOR 2 WK, 0.1% DHPN IN D, Promoter: NONE USED","4/14 (29%), 4/13 (31%), -7%, not significant"
same,"tumour outcome (control, treated, inhibition, significance)","Carcinogen: DIETHYLNITROSAMINE, 55-18-5, N-METHYLNITROSOUREA, 684-93-5, 1,2-DIMETHYLHYDRAZINE, 540-73-8, N-BUTYL-N-(4-HYDROXYB, Carcinogen: DIETHYLNITROSAMINE, 55-18-5, N-METHYLNITROSOUREA, 684-93-5, 1,2-DIMETHYLHYDRAZINE, 540-73-8, N-BUTYL-N-(4-HYDROXYB, Dose [Inhibitor]: 0, 1% IN DIET FOR 4 WK BEGINNING 1 DAY PRIOR TO CARCINOGEN TREATMENT (STUDY DURATION: 36 WK), Route [Inhibitor]: ORAL, Species: RAT, Strain/Sex: F344/MALE, Target Tissue: Type of Lesion: KIDNEY: NEPHROBLASTOMA, Dose [Carcinogen]: 100 MG/KG DEN ONCE, 20 MG/KG MNU 4 TIMES, 40 MG/KG DMH 4 TIMES, 0.05% BBN IN DRINKING WATER FOR 2 WK, 0.1% DHPN IN D, Dose [Carcinogen]: 100 MG/KG DEN ONCE, 20 MG/KG MNU 4 TIMES, 40 MG/KG DMH 4 TIMES, 0.05% BBN IN DRINKING WATER FOR 2 WK, 0.1% DHPN IN D, Promoter: NONE USED","7/14 (50%), 6/13 (46%), 8%, not significant"
same,"tumour outcome (control, treated, inhibition, significance)","Carcinogen: DIETHYLNITROSAMINE, 55-18-5, N-METHYLNITROSOUREA, 684-93-5, 1,2-DIMETHYLHYDRAZINE, 540-73-8, N-BUTYL-N-(4-HYDROXYB, Carcinogen: DIETHYLNITROSAMINE, 55-18-5, N-METHYLNITROSOUREA, 684-93-5, 1,2-DIMETHYLHYDRAZINE, 540-73-8, N-BUTYL-N-(4-HYDROXYB, Dose [Inhibitor]: 0, 1% IN DIET FOR 4 WK BEGINNING 1 DAY PRIOR TO CARCINOGEN TREATMENT (STUDY DURATION: 36 WK), Route [Inhibitor]: ORAL, Species: RAT, Strain/Sex: F344/MALE, Target Tissue: Type of Lesion: LARGE INTESTINE: ADENOMA, Dose [Carcinogen]: 100 MG/KG DEN ONCE, 20 MG/KG MNU 4 TIMES, 40 MG/KG DMH 4 TIMES, 0.05% BBN IN DRINKING WATER FOR 2 WK, 0.1% DHPN IN D, Dose [Carcinogen]: 100 MG/KG DEN ONCE, 20 MG/KG MNU 4 TIMES, 40 MG/KG DMH 4 TIMES, 0.05% BBN IN DRINKING WATER FOR 2 WK, 0.1% DHPN IN D, Promoter: NONE USED","7/14 (50%), 5/13 (38%), 24%, not significant"
same,"tumour outcome (control, treated, inhibition, significance)","Carcinogen: DIETHYLNITROSAMINE, 55-18-5, N-METHYLNITROSOUREA, 684-93-5, 1,2-DIMETHYLHYDRAZINE, 540-73-8, N-BUTYL-N-(4-HYDROXYB, Carcinogen: DIETHYLNITROSAMINE, 55-18-5, N-METHYLNITROSOUREA, 684-93-5, 1,2-DIMETHYLHYDRAZINE, 540-73-8, N-BUTYL-N-(4-HYDROXYB, Dose [Inhibitor]: 0, 1% IN DIET FOR 4 WK BEGINNING 1 DAY PRIOR TO CARCINOGEN TREATMENT (STUDY DURATION: 36 WK), Route [Inhibitor]: ORAL, Species: RAT, Strain/Sex: F344/MALE, Target Tissue: Type of Lesion: LARGE INTESTINE: CARCINOMA, Dose [Carcinogen]: 100 MG/KG DEN ONCE, 20 MG/KG MNU 4 TIMES, 40 MG/KG DMH 4 TIMES, 0.05% BBN IN DRINKING WATER FOR 2 WK, 0.1% DHPN IN D, Dose [Carcinogen]: 100 MG/KG DEN ONCE, 20 MG/KG MNU 4 TIMES, 40 MG/KG DMH 4 TIMES, 0.05% BBN IN DRINKING WATER FOR 2 WK, 0.1% DHPN IN D, Promoter: NONE USED","3/14 (21%), 5/13 (38%), -81%, not significant"
